# Assay results reported in ChEMBL document CHEMBL5260858, “Targeting mycobacterial membranes and membrane proteins: Progress and limitations” (Bioorg Med Chem, 2023).
# What was measured:
# [1] = test system: Mycobacterium tuberculosis variant bovis; experiment: Antitubercular activity against Mycobacterium bovis BCG infected in mouse J774.A1 cells assessed as reduction in intracellular bacterial load incubated for 6 days; type: functional; conditions: 144 h, time 6 day
# [2] = test system: Mycobacterium tuberculosis variant bovis; experiment: Antitubercular activity against Mycobacterium bovis BCG assessed as bacterial growth inhibition incubated for 14 days by agar plate method; type: functional; conditions: 336 h, time 14 day
# [3] = test system: Mycobacterium tuberculosis variant bovis; experiment: Antitubercular activity against Mycobacterium bovis BCG assessed as bacterial growth inhibition; type: functional
# [4] = test system: Mycobacterium tuberculosis variant bovis; experiment: Antitubercular activity against Mycobacterium bovis BCG assessed as minimum bactericidal concentration for 99.9% activity; type: functional; conditions: read-out: MBC99.9
# [5] = test system: Mycobacterium tuberculosis variant bovis; experiment: Antitubercular activity against Mycobacterium bovis assessed as bacterial growth inhibition; type: functional
# [6] = test system: Mycobacterium tuberculosis variant bovis; experiment: Antitubercular activity against Mycobacterium bovis BCG assessed as bacterial growth inhibition incubated for 24 hrs by [14C]-acetate labelling based radiometric analysis; type: functional
# [7] = test system: Mycobacterium tuberculosis variant bovis; experiment: Inhibition of mycolic acid biosynthesis in Mycobacterium bovis BCG assessed as decrease in methoxy-mycolic acid in presence of 14C-labeled acetic acid incubated for 60 mins by photo-stimulated luminescence analysis; type: functional, organism-based; conditions: 1 h
# [8] = test system: Mycobacterium tuberculosis variant bovis; experiment: Inhibition of mycolic acid biosynthesis in Mycobacterium bovis BCG assessed as decrease in keto-mycolic acid in presence of 14C-labeled acetic acid incubated for 60 mins by photo-stimulated luminescence analysis; type: functional, organism-based; conditions: 1 h
# [9] = test system: Mycobacterium tuberculosis variant bovis; experiment: Antitubercular activity against Mycobacterium tuberculosis variant bovis assessed as bacterial growth inhibition; type: functional
compound,measurement,setting,value
COC(=O)c1c(NC(=O)c2c(F)c(F)c(F)c(F)c2F)sc2c1CCCCC2,MIC,[1],12.8 µM
Cc1cc2oc(=O)cc(-c3cccc(N)c3)c2c(C)c1-c1ccc(CN2CCOCC2)cc1,MIC,[2],0.71 µM
CCCCCCCCn1cc(CN2CCCCCC2)c2c(F)cccc21,MIC50,[3],0.3 µM
same,MBC,[4],12 µM
CCCCCCCCn1cc(CN2CCC3(CC2)OCCCO3)c2ccc(OC)cc21,MIC50,[3],0.3 µM
same,MBC,[4],1.2 µM
COc1cccc2ccn(CCCCC[P+](c3ccccc3)(c3ccccc3)c3ccccc3)c12,MIC50,[5],2 µM
CCc1ccc([C@H]2C[C@@H](C(F)(F)F)n3ncc(C(=O)NCc4ccc5c(c4)OCO5)c3N2)cc1,MIC,[6],0.8 µM
O=[N+]([O-])c1cccc2c1ccn2CCCCC[P+](c1ccccc1)(c1ccccc1)c1ccccc1,MIC50,[5],3 µM
CCc1ccc([C@H]2C[C@@H](C(F)(F)F)n3ncc(C(=O)NCc4ccc(OC)cc4)c3N2)cc1,MIC,[6],0.3 µM
COC(=O)c1c(NC(=O)c2c(F)c(F)c(F)c(F)c2F)sc(C(N)=O)c1C,MIC,[1],6.4 µM
C[C@@]1(COc2ccc(N3CCC(Oc4ccc(OC(F)(F)F)cc4)CC3)cc2)Cn2cc([N+](=O)[O-])nc2O1,IC50,[7],0.63 µg/mL
same,IC50,[8],0.69 µg/mL
COc1nc2ccc(Br)cc2cc1[C@@H](c1ccccc1)[C@@](O)(CCN(C)C)c1cccc2ccccc12 [BEDAQUILINE],MIC,[5],0.003 µg/mL
NNC(=O)c1ccncc1 [ISONIAZID],IC50,[7],0.036 µg/mL
same,IC50,[8],0.021 µg/mL
CCc1nc2ccc(Cl)cn2c1C(=O)NCc1ccc(N2CCC(c3ccc(OC(F)(F)F)cc3)CC2)cc1 [TELACEBEC],MIC,[9],0.0035 µM
